Legend:
plants and animals = conditions: cited from earlier work
[1] = Particle size analysis using a Hiac/Royco 8000A Laser Extinction Counter; format: physicochemical; conditions: particles formed in Example 1
From the text: Particle size analysis, using a Hiac/Royco […] Laser Extinction Counter of a typical batch of the biocidal preparation gave;

[2] = Settling of copper (II) oxalate particles through water in a measuring cylinder; format: physicochemical; conditions: majority of particles, distributed on the surface of a measuring cylinder
Procedure: A portion of a biocidal composition prepared as described above was distributed on the surface of a measuring cylinder. […] After standing for approximately four hours, samples were taken by pipette from various portions of the water body. The concentration of copper (II) ions in the water body was measured, by way of atomic absorption spectrophotometry, at between 5 and 8 parts per million.

Row | Structure (SMILES) | Concentration not toxic to almost all plants and animals (plants and animals; over extended periods of time) | Level tolerated by most plants and animals (plants and animals; over relatively short periods of time) [parts per million] | Predominant particle size [1] | Settling rate of particles [2]
1 | [Cu+2] [copper (II) ions] | up to 2 parts per million | 10 |  | 
2 | O=C([O-])C(=O)[O-].[Cu+2] [copper (II) oxalate] |  |  | below 10 μm | 2-5 metres per hour
